# Reference: patent US20180355326A1, “CYTOCHROME P450 AND CYTOCHROME P450 REDUCTASE POLYPEPTIDES, ENCODING NUCLEIC ACID MOLECULES AND USES THEREOF” (UNIVERSITY OF BRITISH COLUMBIA, priority 2012, published 2018)
# B1: SaCYP76F37v1 (SaCYP76-G11) (Santalum album) (protein)
# chain: MDFLSCILSVLFAWALVRALPTLSRGSKAAGGRLPPGPVPLPVVGNLLKLGSKPHKSLAELAKSYGPIMCLKLGHIITIVISTPTVAKEVLQKQDVAFCNRTIPDAVRAHRHDLHSMVWLPVSTRWRTLRKISNSHIFSSQRLDENHHLRRRKLDELLTRVAESSLVGAVVDIGAVAFLTSLNLLSNTVFSKDLVEPGLGAVQEMEEVVWGITEEAGRPNLVDYFPVLRRLDPQGTRRRMMGYFGKMFEVFGDIIDERLEWRKQQSDGDSPAGTTNDVLDVLLNIIEDAEIEEKPNRTDVEHFLLDLFAAGSDTTSSTVEWAMTELLRKPETLERARSELHETIGPENLVQEADLPRLPYLQAVVKETFRLHPPVPLLLPRTAEKDAELCGFTVPAGAQIMVNAWAIGRDPGTWEDPESFLPERFLGSDVDVKGRSFELIPFGGGRRICPGLPLAIRMVHLMLGSLIHGFRWKVDDDGMGSPETAMDMDEKFGITLQKAKPLCAVPIRG
# B2: SaCYP76F39v1 (SaCYP76-G10) (Santalum album) (protein)
# chain: MDFLSCILFVLFAWALVRALPTLSRGSKAASGRLPPGPVPWPVVGNLLKLGNKPHKSLAELAKSYGPIMCLKLGHMTTIVISTPTVAKEVLQKQDVAFSNRTTPDAVRAHGHDLYSMAWLPVSTRWRTLRKISNSHIFTSQRLDENHHLRRRKLDELLARVAESSLVGAVVDMGAVAFLTSLNLLSNTVFSKDLVEPGLGAVQETKEVVWGMMEEAGRPNLVDYFPVLRRLDPQGIRRRMTGYFGKMLEVFGDIIDERLEWRKQQSDGDSPAGTTNDVLDVLLNIIEDAEIEEKPNRTDVEHFLLDLFAAGSDTTSSTVEWAMTELLRKPETLERARSELHETIGPENLVQEADLPRLPYLQAVVKETFRLHPPVPLLLPRTAEKDAELCGFTVPAGAQIMVNAWAIGRDPGTWEDPESFLPERFLGSDVDVKGRSFELIPFGGGRRICPGLPLAIRMVHLMLGSLIHGFRWKVDDDGMGSPETAMDMDEKFGITLQKAKPLCAVPIRG
# Legend:
# [1] = test system: SaCYP76F38v1 (SaCYP76-G5); experiment: Coupled enzyme assay with SaSSy and FPP, microsomes containing SaCYP76F38v1; format: biochemical, Santalum album; details: in vitro reaction products of SaSSy and 70 μM FPP, 0.8 mM NADPH, 30° C., 1 hour
# Experimental: Coupled enzyme assays with S. album santalene synthase (SaSSy) expressed in bacteria (Jones et al. (2011) J Biol Chem 286:17445-17454) were initiated with 50 μg of His6-tag purified SaSSy and 70 μM farnesyl pyrophosphate (FPP) in TPS buffer (25 mM HEPES pH 7.5, 5 mM MgCl2, 1 mM DTT) in a volume of 450 μL. The assays were incubated for 30 min at 30° C. followed by the addition of 50 μL of the microsome preparation containing a S. album cytochrome P450 and a cytochrome P450 reductase and 0.8 mM NADPH. The reaction was incubated for an additional 1 hour at 30° C. and was stopped by extraction with 500 μL hexane/ethyl acetate (85:15).
# [2] = target: T1, SaCYP76F39v1 (SaCYP76-G10) (Santalum album, UniProt V5RH69); experiment: Oxidation of individual sesquiterpenes by microsomes containing SaCYP76F39v1; format: biochemical; details: partially purified substrate fraction, GC-MS
# Experimental: (§1) Assays were performed in 400 μL reaction volumes containing 50 mM potassium phosphate pH 7.5, 0.8 mM NADPH and 40 μM of substrate. Enzyme reactions were initiated by adding 50 μL of the microsomes preparation (prepared in Example 8), incubated at 30° C. for 2 hours with shaking and stopped by adding 500 μL hexane.
# (§2) Microsome preparations containing candidate P450 were assayed for their capacity to oxidize individual sesquiterpenes. The sesquiterpenes were isolated as described in Example 9 above. Three fractions containing mainly α-santalene, α-trans-bergamotene, or epi-β-santalene and β-santalene were used as individual substrates in assays containing clade I P450 SaCYP76F39v1 (SaCYP76-G10) or clade II P450 SaCYP76F37v1 (SaCYP76-G11). The assays were performed as described in Section B.1.b. above and products were identified by comparison to authentic standards (see Table 12 and FIG. 20G).
# [3] = target: T1, SaCYP76F39v1 (SaCYP76-G10); experiment: In vitro assay 2, microsomes containing SaCYP76F39v1 with a mixture of santalenes and bergamotene; format: biochemical; details: substrate mixture of santalenes and bergamotene; no product in the absence of NADPH or with empty vector microsomes
# Experimental: as §1
# Microsomes containing SaCYP76F39v1 (SaCYP76-G10) were assayed for their activity using the assay described in Section B. above.
# [4] = target: T2, SaCYP76F37v1 (SaCYP76-G11) (Santalum album, UniProt V5RGC8); experiment: Oxidation of individual sesquiterpenes by microsomes containing SaCYP76F37v1; format: biochemical; details: partially purified substrate fraction, GC-MS
# Experimental: as §1, §2
# [5] = target: T1, SaCYP76F39v1 (SaCYP76-G10); experiment: Oxidation of various mono- and sesquiterpene substrates in vitro by SaCYP76F39v1; details: product formation the same as that catalyzed by CYP76-G5
# Experimental: The reaction mixtures contained 50 mM potassium phosphate, 0.8 mM NADPH and 60 to 80 μM of the terpene substrate in a total volume of 350 μL. Enzyme reactions were started by adding 50 μL of the microsome preparation, incubated at 30° C. for 1 hour with shaking and stopped by extraction with 500 μL of hexane/ethyl acetate (85:15). […] The reaction products were identified based on matches of the MS fragmentation patterns with entries in the NIST and Wiley libraries (Wiley Registry® 9th Edition/NIST 2011; Fred W. McLafferty, John Wiley & Sons, Inc.).
# [6] = test system: SaCYP76F38v1 (SaCYP76-G5); experiment: Oxidation of various mono- and sesquiterpene substrates by yeast microsomes containing SaCYP76F38v1; format: biochemical, Santalum album; details: 60 to 80 μM of the terpene substrate, 30° C., 1 hour, GC-MS, compared to vector control
# Experimental: The reaction mixtures contained 50 mM potassium phosphate, 0.8 mM NADPH and 60 to 80 μM of the terpene substrate in a total volume of 350 μL. Enzyme reactions were started by adding 50 μL of the microsome preparation, incubated at 30° C. for 1 hour with shaking and stopped by extraction with 500 μL of hexane/ethyl acetate (85:15). The organic layer was concentrated under a gentle stream of N2 gas to about 100 μL and analyzed by GC-MS analysis as described in Example 6. […] The reaction products were identified based on matches of the MS fragmentation patterns with entries in the NIST and Wiley libraries (Wiley Registry® 9th Edition/NIST 2011; Fred W. McLafferty, John Wiley & Sons, Inc.).
# [7] = target: T2, SaCYP76F37v1 (SaCYP76-G11); experiment: Substrate specificity, yeast microsomes containing SaCYP76F37v1 with various sesquiterpenes; format: biochemical; details: 40 μM of substrate, 30° C., 2 hours; for activity at 40 µM: rate of product formation relative to product formation by SaCYP76F39v1 with β-santalene
# Experimental: as §1
# (§3) To test the range of substrates used by the clade I and clade II SaCYP76F enzymes, yeast microsomes containing SaCYP76F37v1 (SaCYP76-G11) and SaCYP76F39v1 (SaCYP76-G10) were assayed for their ability to convert various sesquiterpenes, including the substrates α-santalene and β-santalene and 7 additional sesquiterpenes which resemble santalenes in the acyclic isoprenyl side chain, including α-curcumene, zingiberine, β-bisabolene, β-sesquiphellandrene, α-bisabolol, trans-β-farnesene and trans-nerolidol. Each substrate was tested using the in vitro assay described in Example 11.B.1.b above.
# (§4) The results are shown in Table 15 below, which sets forth the substrates, including their structures, and the relative activities which represent the rate of product formation relative to product formation by SaCYP76F39v1 (SaCYP76-G10) with β-santalene.
# [8] = target: T1, SaCYP76F39v1 (SaCYP76-G10); experiment: Substrate specificity, yeast microsomes containing SaCYP76F39v1 with various sesquiterpenes; format: biochemical; details: 40 μM of substrate, 30° C., 2 hours; for activity at 40 µM: rate of product formation relative to product formation by SaCYP76F39v1 with β-santalene
# Experimental: as §1, §3, §4
# [9] = substrate: CC(C)=CCC[C@]1(C)C2C[C@@H]3[C@H](C2)C31C; experiment: Kinetic assay with α-santalene or β-santalene as the substrate, SaCYP76F37v1; format: biochemical, Santalum album; details: other: apparent Km, 35 pmol P450, substrate 12 to 138 μM, 0.8 mM NADPH, pH 7.5, 30° C., 20 minutes
# Experimental: (§5) To test the kinetics of the clade I and clade II SaCYP76F enzymes, kinetic assays were performed with SaCYP76F37v1 (SaCYP76-G11) and SaCYP76F39v1 (SaCYP76-G10) with α-santalene or β-santalene as the substrate. Assays were performed in 400 μL reaction volumes containing 50 mM potassium phosphate pH 7.5, 0.8 mM NADPH and substrate concentrations of 12 to 138 μM of α-santalene or β-santalene. Enzyme reactions were initiated by adding either 17 pmol of SaCYP7639v1 or 35 pmol of SaCYP7637v1, incubated at 30° C. for 20 minutes with shaking and stopped by adding 500 μL hexane. […] Kinetic data were evaluated using tools described in Hernandez and Ruiz ((1998) Bioinformatics. 14:227-228).
# (§6) The apparent Km values, kcat values and kcat/Km values for SaCYP76F39v1 (SaCYP76-G10) and SaCYP76F37v1 (SaCYP76-G11) with α-santalene and β-santalene are set forth in Table 14 below.
# [10] = substrate: C=C1[C@@H]2CC[C@@H](C2)[C@@]1(C)CCC=C(C)C; experiment: as above; format: biochemical, Santalum album; details: other: apparent Km, 35 pmol P450, substrate 12 to 138 μM, 0.8 mM NADPH, pH 7.5, 30° C., 20 minutes
# Experimental: as §5, §6
# [11] = substrate: CC(C)=CCC[C@]1(C)C2C[C@@H]3[C@H](C2)C31C; experiment: Kinetic assay with α-santalene or β-santalene as the substrate, SaCYP76F39v1; format: biochemical, Santalum album; details: other: apparent Km, 17 pmol P450, substrate 12 to 138 μM, 0.8 mM NADPH, pH 7.5, 30° C., 20 minutes
# Experimental: as §5, §6
# [12] = substrate: C=C1[C@@H]2CC[C@@H](C2)[C@@]1(C)CCC=C(C)C; experiment: as above; format: biochemical, Santalum album; details: other: apparent Km, 17 pmol P450, substrate 12 to 138 μM, 0.8 mM NADPH, pH 7.5, 30° C., 20 minutes
# Experimental: as §5, §6
molecule,measurement,setting,value
CC(C)=CCCC1(C)C2CC=C(C)C1C2 (stereo not drawn) [α-trans-bergamotene],Hydroxylation/oxidation by SaCYP76F38v1,[1],catalyzed the hydroxylation
same,Products formed with SaCYP76F39v1,[2],(Z)- and (E)-α-trans-bergamotol
same,Hydroxylation by SaCYP76F39v1,[3],catalyzed the hydroxylation
same,Products formed with SaCYP76F37v1,[4],only (E)-α-trans-bergamotol
CC(C)=CCC[C@](C)(O)C1CC=C(C)CC1 (stereo partly shown) [bisabolol],Hydroxylation by CYP76-G10 in vitro,[5],catalyzed the hydroxylation
same,Products of reaction with SaCYP76F38v1,[6],one product
C=C1C2CCC(C2)[C@@]1(C)CCC=C(C)C (stereo partly drawn) [epi-β-santalene],Hydroxylation by SaCYP76F39v1,[3],catalyzed the hydroxylation
C=CC(C)(O)CC/C=C(\C)CCC=C(C)C (stereo not drawn) [trans-nerolidol],Use as a substrate by SaCYP76F37v1 (in words),[7],selectively active
same,activity at 40 µM,[7],11.3%
same,Use as a substrate by SaCYP76F39v1 (in words),[8],did not use
same,activity at 40 µM,[8],0%
CC(C)=CCCC(C)C1C=CC(C)=CC1 (stereo not shown) [zingiberene],activity at 40 µM,[7],0%
same,Use as a substrate by SaCYP76F39v1 (in words),[8],did not use
same,activity at 40 µM,[8],0%
C=C(CCC=C(C)C)C1CC=C(C)CC1 (stereo not drawn) [β-bisabolene],activity at 40 µM,[7],0%
same,Use as a substrate by SaCYP76F39v1 (in words),[8],did not use
same,activity at 40 µM,[8],0%
CC(C)=CCCC(C)c1ccc(C)cc1 (stereo not drawn) [α-curcumene],activity at 40 µM,[7],0%
same,Use as a substrate by SaCYP76F39v1 (in words),[8],did not use
same,activity at 40 µM,[8],0%
C=CC(=C)CC/C=C(\C)CCC=C(C)C [trans-farnesene],activity at 40 µM,[7],0%
same,Use as a substrate by SaCYP76F39v1 (in words),[8],did not use
same,activity at 40 µM,[8],0%
C=C1C=CC(C(C)CCC=C(C)C)CC1 (stereo not drawn) [β-sesquiphellandrene],activity at 40 µM,[7],0%
same,Use as a substrate by SaCYP76F39v1 (in words),[8],did not use
same,activity at 40 µM,[8],0%
C=CC(C)(O)CCC=C(C)C (stereo not shown) [linalool],Hydroxylation by CYP76-G10 in vitro,[5],catalyzed the hydroxylation
same,Products of reaction with SaCYP76F38v1,[6],two products
C=CC(C)(O)CCC=C(C)CCC=C(C)C (stereo not shown) [nerolidol],Products of reaction with SaCYP76F38v1,[6],two products
CC(C)=CCCC(C)(O)C1CC=C(C)CC1 (stereo not drawn) [α-bisabolol],activity at 40 µM,[7],0%
same,Use as a substrate by SaCYP76F39v1 (in words),[8],low activity
same,activity at 40 µM,[8],9.4%
CC(C)=CCC[C@]1(C)C2C[C@@H]3[C@H](C2)C31C [α-santalene],activity at 40 µM,[7],17.3%
same,Products formed with SaCYP76F39v1,[2],(Z)- and (E)-α-santalol
same,activity at 40 µM,[8],99.8%
same,Hydroxylation by SaCYP76F39v1,[3],catalyzed the hydroxylation
same,Products formed with SaCYP76F37v1,[4],only (E)-α-santalol
C=C1[C@@H]2CC[C@@H](C2)[C@@]1(C)CCC=C(C)C [β-santalene],activity at 40 µM,[7],17.7%
same,activity at 40 µM,[8],100%
same,Hydroxylation by SaCYP76F39v1,[3],catalyzed the hydroxylation
B1,Km,[9],133 ± 0.41 µM
same,kcat,[9],0.2 s⁻¹
same,kcat/Km,[9],1500 M⁻¹ s⁻¹
same,Km,[10],157 ± 0.17 µM
same,kcat,[10],0.13 s⁻¹
same,kcat/Km,[10],810 M⁻¹ s⁻¹
B2,Km,[11],25.92 ± 0.11 µM
same,kcat,[11],1.12 s⁻¹
same,kcat/Km,[11],43000 M⁻¹ s⁻¹
same,Km,[12],34.82 ± 0.41 µM
same,kcat,[12],1.17 s⁻¹
same,kcat/Km,[12],33000 M⁻¹ s⁻¹
